For assay [1], the system named is HXB2-mediated cell fusion (HL2/3 effector cells, TZM-b1 target cells). Format: cell-based, HIV-1. To be noted: HXB2-mediated cell fusion.
Protocol: HIV-1 mediated cell fusion inhibition assay: the effector cells (HL2/3 cells) and target cells (TZM-b1 cells) were provided by the AIDS Reagent Program of National Institutes of Health (NIH) (catalog numbers: 1294 and 8129, respectively). The both cells were adherent cells and were cultured in a DMEM cell culture medium containing ampicillin/streptomycin double antibiotics and 10% fetal bovine serum (FBS). The TZM-b1 was first added to a 96-well cell culture plate (1×10^4 cells/well), and cultured overnight at 37° C. and 5% CO2. The test substance was diluted with the DMEM cell culture medium by 3 folds and mixed with HL2/3 effector cells (3×10^4 cells/well), then added to the TZM-b1 target cells, and further cultured for 6 hours to fully fuse. The activity of luciferase (relative fluorescence units, RLU) was then determined using a luciferase reporter gene kit from Promega company according to the instructions. The inhibition rate of each sample at each concentration was calculated, and the half effective inhibitory concentration (IC50 value) was calculated using GraphPad Prism Software 2.01.
A further assay relates to SHIV strain SF162P3. Put plainly: therapeutic effect in monkey infection model. Format: in vivo, Chinese rhesus monkeys. How it is done:
Six adult Chinese rhesus monkeys (numbered A to F, half male and half female) were used in the test, and antibodies to SIV, herpesvirus B, and simian T-lymphotropic virus were determined to be negative. The SHIV strain SF162P3 was provided by the AIDS Reagent Program of NIH in the United States, and was amplified on peripheral blood mononuclear cells (PBMC) of the monkeys, and the TCID50 was determined. Monkeys were intravenously inoculated with 1,000 TCID50 of the SF162P3 virus, and changes in plasma viral load (RNA copy number/ml) in the monkeys were measured periodically. […] The plasma samples were isolated from monkey bloods collected at predetermined time points and the plasma viral load (RNA copy number/ml) was determined by quantitative real-time reverse transcription-polymerase chain reaction (qRT-PCR). The plasma RNA was extracted by a conventional method and cDNA samples were synthesized by reverse transcription reaction. […] The PCR device used was PE AB17500. The sensitivity of the assay was 100 RNA copies per milliliter of plasma sample.

Peptide text beside a SMILES is read from it. * marks the point of attachment. Stearoyl = CCCCCCCCCCCCCCCCCC(=O)*; Palmitoyl = CCCCCCCCCCCCCCCC(=O)*

For the molecule `CCCCCCCCCCCCCCCC(=O)NCCCC[C@H](NC(=O)[C@H](CCC(=O)O)NC(=O)[C@H](CC(C)C)NC(=O)[C@H](CCCCN)NC(=O)[C@H](CCCCN)NC(=O)[C@H](CC(C)C)NC(=O)[C@H](CCC(=O)O)NC(=O)[C@H](CCC(=O)O)NC(=O)[C@H](CCC(=O)O)NC(=O)[C@H](CC(N)=O)NC(=O)[C@H](CCCCN)NC(=O)[C@H](CCCCN)NC(=O)[C@H](CCC(N)=O)NC(=O)[C@H](CCC(N)=O)NC(=O)[C@H](CCC(=O)O)NC(=O)[C@H](CCC(=O)O)NC(=O)[C@H](C)NC(=O)[C@H](CCCCN)NC(=O)[C@H](CCCCN)NC(=O)[C@H](CC(C)C)NC(=O)[C@H](CC(C)C)NC(=O)[C@H](CCC(=O)O)NC(=O)[C@H](CCC(=O)O)NC(=O)[C@@H](NC(=O)[C@H](CCCCN)NC(=O)[C@H](CCC(N)=O)NC(=O)[C@H](CCC(=O)O)NC(=O)[C@H](Cc1c[nH]c2ccccc12)NC(C)=O)[C@@H](C)CC)C(N)=O` [LP-52] (Ac-WEQKIEELLKKAEEQQKKNEEELKKLEK(Palmitoyl)-NH2), in assay [1] (relative to LP-50), the “inhibitory activity further improved, folds” value was “about 2 folds”. Besides, the “inhibitory activity as folds of that of T-20” value in assay [1] (relative to T-20) worked out at 1859 folds.

Consider `CCCCCCCCCCCCCCCCCC(=O)NCCCC[C@H](NC(=O)[C@H](CCC(=O)O)NC(=O)[C@H](CC(C)C)NC(=O)[C@H](CCCCN)NC(=O)[C@H](CCCCN)NC(=O)[C@H](CC(C)C)NC(=O)[C@H](CCC(=O)O)NC(=O)[C@H](CCC(=O)O)NC(=O)[C@H](CCC(=O)O)NC(=O)[C@H](CC(N)=O)NC(=O)[C@H](CCCCN)NC(=O)[C@H](CCCCN)NC(=O)[C@H](CCC(N)=O)NC(=O)[C@H](CCC(N)=O)NC(=O)[C@H](CCC(=O)O)NC(=O)[C@H](CCC(=O)O)NC(=O)[C@H](C)NC(=O)[C@H](CCCCN)NC(=O)[C@H](CCCCN)NC(=O)[C@H](CC(C)C)NC(=O)[C@H](CC(C)C)NC(=O)[C@H](CCC(=O)O)NC(=O)[C@H](CCC(=O)O)NC(=O)[C@@H](NC(=O)[C@H](CCCCN)NC(=O)[C@H](CCC(N)=O)NC(=O)[C@H](CCC(=O)O)NC(=O)[C@H](Cc1c[nH]c2ccccc12)NC(C)=O)[C@@H](C)CC)C(N)=O` [LP-80] (Ac-WEQKIEELLKKAEEQQKKNEEELKKLEK(Stearoyl)-NH2), for which the “monkeys with viral load decreased below the detectable level line” value with SHIV strain SF162P3 (2 mg/kg s.c. once a day, fourth day after the treatment, six monkeys) is reported as “three of the six monkeys”. For the same molecule, the rebound of virus result is on record as “did not rebound” in the assay on SHIV strain SF162P3 (4th day after administration was stopped), “one of the monkeys (monkey A)” with SHIV strain SF162P3 (10th day after administration was stopped) and “the other 5 monkeys except the monkey C” in the assay with SHIV strain SF162P3 (17th day after administration was stopped). Moreover, the “monkeys with viral load not detected” value in the assay on SHIV strain SF162P3 (14th day after the treatment) is listed as “all six monkeys”; in the assay on SHIV strain SF162P3 (eighth day after the treatment), “five monkeys”. In addition, the “rebound of viral load” value with SHIV strain SF162P3 (24th day after administration was stopped) is “all monkeys”. The “therapeutic effect (in words)” value in the assay on SHIV strain SF162P3 (SHIV SF162P3 infected rhesus monkeys) is reported as “powerful antiviral therapeutic effect”. Also, the “viral load during subsequent treatment” value in the assay on SHIV strain SF162P3 (administration once per 4 days for 4 weeks) was “controlled below the detectable level line”.

The record behind these values is patent US11680086B2, “Lipopeptide for potently inhibiting HIV, derivative thereof, pharmaceutical composition thereof and use thereof” (Institute of Pathogen Biology, Chinese Academy of Medical …, priority 2017, dated 2023).
